# Target: SHP2 (Homo sapiens (Human), UniProt Q06124)
# Assay: SHP2 Allosteric Inhibition Assay
# Assay type: biochemical
# Settings: 0.5 nM SHP2 with 0.5 μM peptide IRS1_pY1172(dPEG8)pY1222; surrogate substrate DiFMUP; 25° C.; read-out: SHP2 IC50
# From the text: SHP2 Allosteric Inhibition Assay
# SHP2 is allosterically activated through binding of bis-tyrosyl-phosphorylated peptides to its Src Homology 2 (SH2) domains. The latter activation step leads to the release of the auto-inhibitory interface of SHP2, which in turn renders the SHP2 protein tyrosine phosphatase (PTP) active and available for substrate recognition and reaction catalysis. The catalytic activity of SHP2 was monitored using the surrogate substrate DiFMUP in a prompt fluorescence assay format.
# After 30-60 minutes incubation at 25° C., the surrogate substrate DiFMUP (Invitrogen, cat #D6567) was added to the reaction and incubated at 25° C. for 30 minutes. […] The inhibitor dose response curves were analyzed using normalized IC50 regression curve fitting with control based normalization.
row,SMILES,IC50
1,"C[C@@H]1OCC2(CCN(c3nc4[nH]nc(-c5ccnc(Cl)c5Br)c4c(=O)n3C)CC2)[C@@H]1N [Example 33, 6-((3S,4S)-4-amino-3-methyl-2-oxa-8-azaspiro[4.5]decan-8-yl)-3-(3-bromo-2-chloropyridin-4-yl)-5-methyl-1,5-dihydro-4H-pyrazolo[3,4-d]pyrimidin-4-one]",13 nM
2,"CNc1nccc(-c2n[nH]c3nc(N4CCC5(CC4)CO[C@@H](C)[C@H]5N)n(C)c(=O)c23)c1Br [Example 35, 6-((3S,4S)-4-amino-3-methyl-2-oxa-8-azaspiro[4.5]decan-8-yl)-3-(3-bromo-2(methylamino)pyridin-4-yl)-5-methyl-1,5-dihydro-4H-pyrazolo[3,4-d]pyrimidin-4-one]",34 nM
3,"Cn1c(N2CCC3(CC2)C[C@H](F)C[C@H]3N)nc2[nH]nc(-c3ccnc(N)c3Cl)c2c1=O [Example 37, 3-(2-amino-3-chloropyridin-4-yl)-6-((1R,3S)-1-amino-3-fluoro-8-azaspiro[4.5]decan-8-yl)-5-methyl-1,5-dihydro-4H-pyrazolo[3,4-d]pyrimidin-4-one]",27 nM
4,"Cn1c(N2CCC3(CC2)C[C@H](F)C[C@H]3N)nc2[nH]nc(-c3ccnc(NC4CC4)c3Cl)c2c1=O [Example 38, 6-((1R,3S)-1-amino-3-fluoro-8-azaspiro[4.5]decan-8-yl)-3-(3-chloro-2-(cyclopropylamino)pyridin-4-yl)-5-methyl-1,5-dihydro-4H-pyrazolo[3,4-d]pyrimidin-4-one]",11 nM
5,"Cc1nc(N(C)C)ccc1-c1n[nH]c2nc(N3CCC4(CC3)CO[C@@H](C)[C@H]4N)n(C)c(=O)c12 [Example 40, 6-((3S,4S)-4-amino-3-methyl-2-oxa-8-azaspiro[4.5]decan-8-yl)-3-(6-(dimethylamino)-2-methylpyridin-3-yl)-5-methyl-1,5-dihydro-4H-pyrazolo[3,4-d]pyrimidin-4-one]",89 nM
6,"COc1ccc(-c2n[nH]c3nc(N4CCC5(CC4)CO[C@@H](C)[C@H]5N)n(C)c(=O)c23)cc1 [Example 42, 6-((3S,4S)-4-amino-3-methyl-2-oxa-8-azaspiro[4.5]decan-8-yl)-3-(4-methoxyphenyl)-5-methyl-1,5-dihydro-4H-pyrazolo[3,4-d]pyrimidin-4-one]",20 nM
7,"C[C@@H]1OCC2(CCN(c3nc4[nH]nc(-c5ccnc(N6CC[C@@H](O)C6)c5Cl)c4c(=O)n3C)CC2)[C@@H]1N [Example 43, 6-((3S,4S)-4-amino-3-methyl-2-oxa-8-azaspiro[4.5]decan-8-yl)-3-(3-chloro-2-((R)-3-hydroxypyrrolidin-1-yl)pyridin-4-yl)-5-methyl-1,5-dihydro-4H-pyrazolo[3,4-d]pyrimidin-4-one]",84 nM
8,"C[C@@H]1OCC2(CCN(c3nc4[nH]nc(-c5ccnc(Cl)c5)c4c(=O)n3C)CC2)[C@@H]1N [Example 44, 6-((3S,4S)-4-amino-3-methyl-2-oxa-8-azaspiro[4.5]decan-8-yl)-3-(2-chloropyridin-4-yl)-5-methyl-1,5-dihydro-4H-pyrazolo[3,4-d]pyrimidin-4-one]",16 nM
9,"CNc1cc(-c2n[nH]c3nc(N4CCC5(CC4)CO[C@@H](C)[C@H]5N)n(C)c(=O)c23)ccn1 [Example 46, 6-((3S,4S)-4-amino-3-methyl-2-oxa-8-azaspiro[4.5]decan-8-yl)-5-methyl-3-(2-(methylamino)pyridin-4-yl)-1,5-dihydro-4H-pyrazolo[3,4-d]pyrimidin-4-one]",50 nM
10,"Cc1nc(N)ccc1-c1n[nH]c2nc(N3CCC4(CC3)CO[C@@H](C)[C@H]4N)n(C)c(=O)c12 [Example 47, 3-(6-amino-2-methylpyridin-3-yl)-6-((3S,4S)-4-amino-3-methyl-2-oxa-8-azaspiro[4.5]decan-8-yl)-5-methyl-1,5-dihydro-4H-pyrazolo[3,4-d]pyrimidin-4-one]",37 nM
11,"Cc1nc(N)ccc1-c1n[nH]c2nc(N3CCC4(CC3)CC(F)(F)C[C@H]4N)n(C)c(=O)c12 [Example 49, (R)-3-(6-amino-2-methylpyridin-3-yl)-6-(1-amino-3,3-difluoro-8-azaspiro[4.5]decan-8-yl)-5-methyl-1,5-dihydro-4H-pyrazolo[3,4-d]pyrimidin-4-one]",9 nM
12,"Cn1c(N2CCC3(CC2)CC(F)(F)C[C@H]3N)nc2[nH]nc(-c3ccnc(NC4CC4)c3Cl)c2c1=O [Example 50, (R)-6-(1-amino-3,3-difluoro-8-azaspiro[4.5]decan-8-yl)-3-(3-chloro-2-(cyclopropylamino)pyridin-4-yl)-5-methyl-1,5-dihydro-4H-pyrazolo[3,4-d]pyrimidin-4-one]",35 nM
13,"C[C@@H]1OCC2(CCN(c3nc4[nH]nc(-c5ccc(N)nc5Cl)c4c(=O)n3C)CC2)[C@@H]1N [Example 52, 3-(6-amino-2-chloropyridin-3-yl)-6-((3S,4S)-4-amino-3-methyl-2-oxa-8-azaspiro[4.5]decan-8-yl)-5-methyl-1,5-dihydro-4H-pyrazolo[3,4-d]pyrimidin-4-one]",23 nM
14,"Cc1nc(N)ccc1-c1n[nH]c2nc(N3CCC4(CC3)C[C@@H](C(F)(F)F)C[C@H]4N)n(C)c(=O)c12 [Example 53, 3-(6-amino-2-methylpyridin-3-yl)-6-((1R,3R)-1-amino-3-(trifluoromethyl)-8-azaspiro[4.5]decan-8-yl)-5-methyl-1,5-dihydro-4H-pyrazolo[3,4-d]pyrimidin-4-one]",36 nM
15,"C[C@@H]1OCC2(CCN(c3nc4[nH]nc(-c5cccc(N)c5)c4c(=O)n3C)CC2)[C@@H]1N [Example 55, 6-((3S,4S)-4-amino-3-methyl-2-oxa-8-azaspiro[4.5]decan-8-yl)-3-(3-aminophenyl)-5-methyl-1,5-dihydro-4H-pyrazolo[3,4-d]pyrimidin-4-one]",83 nM
16,"C[C@@H]1OCC2(CCN(c3nc4[nH]nc(-c5ccc6c(c5)CCO6)c4c(=O)n3C)CC2)[C@@H]1N [Example 56, 6-((3S,4S)-4-amino-3-methyl-2-oxa-8-azaspiro[4.5]decan-8-yl)-3-(2,3-dihydrobenzofuran-5-yl)-5-methyl-1,5-dihydro-4H-pyrazolo[3,4-d]pyrimidin-4-one]",95 nM
17,"C[C@@H]1OCC2(CCN(c3nc4[nH]nc(-c5ccc(F)c(F)c5)c4c(=O)n3C)CC2)[C@@H]1N [Example 58, 6-((3S,4S)-4-amino-3-methyl-2-oxa-8-azaspiro[4.5]decan-8-yl)-3-(3,4-difluorophenyl)-5-methyl-1,5-dihydro-4H-pyrazolo[3,4-d]pyrimidin-4-one]",11 nM

# Second part, the compound after the results:
row,IC50,SMILES
1,27 nM,"C[C@@H]1OCC2(CCN(c3nc4[nH]nc(-c5ccnc(Br)c5)c4c(=O)n3C)CC2)[C@@H]1N [Example 34, 6-((3S,4S)-4-amino-3-methyl-2-oxa-8-azaspiro[4.5]decan-8-yl)-3-(2-bromopyridin-4-yl)-5-methyl-1,5-dihydro-4H-pyrazolo[3,4-d]pyrimidin-4-one]"
2,9 nM,"C[C@H]1C[C@@H](N)C2(CCN(c3nc4[nH]nc(-c5ccncc5)c4c(=O)n3C)CC2)C1 [Example 36, 6-((1R,3R)-1-amino-3-methyl-8-azaspiro[4.5]decan-8-yl)-5-methyl-3-(pyridin-4-yl)-1,5-dihydro-4H-pyrazolo[3,4-d]pyrimidin-4-one]"
3,37 nM,"Cn1c(N2CCC3(CC2)C[C@H](F)C[C@H]3N)nc2[nH]nc(-c3ccccc3)c2c1=O [Example 39, 6-((1R,3S)-1-amino-3-fluoro-8-azaspiro[4.5]decan-8-yl)-5-methyl-3-phenyl-1,5-dihydro-4H-pyrazolo[3,4-d]pyrimidin-4-one]"
4,33 nM,"C[C@@H]1OCC2(CCN(c3nc4[nH]nc(-c5ccccc5)c4c(=O)n3C)CC2)[C@@H]1N [Example 41, 6-((3S,4S)-4-amino-3-methyl-2-oxa-8-azaspiro[4.5]decan-8-yl)-5-methyl-3-phenyl-1,5-dihydro-4H-pyrazolo[3,4-d]pyrimidin-4-one]"
5,37 nM,"C[C@@H]1OCC2(CCN(c3nc4[nH]nc(-c5ccnc(N)c5)c4c(=O)n3C)CC2)[C@@H]1N [Example 45, 6-((3S,4S)-4-amino-3-methyl-2-oxa-8-azaspiro[4.5]decan-8-yl)-3-(2-aminopyridin-4-yl)-5-methyl-1,5-dihydro-4H-pyrazolo[3,4-d]pyrimidin-4-one]"
6,16 nM,"Cc1nc(N)ccc1-c1n[nH]c2nc(N3CCC4(CC3)C[C@@H](C)C[C@H]4N)n(C)c(=O)c12 [Example 48, 3-(6-amino-2-methylpyridin-3-yl)-6-((1R,3R)-1-amino-3-methyl-8-azaspiro[4.5]decan-8-yl)-5-methyl-1,5-dihydro-4H-pyrazolo[3,4-d]pyrimidin-4-one]"
7,14 nM,"Cn1c(N2CCC3(CC2)CC(F)(F)C[C@H]3N)nc2[nH]nc(-c3ccncc3)c2c1=O [Example 51, (R)-6-(1-amino-3,3-difluoro-8-azaspiro[4.5]decan-8-yl)-5-methyl-3-(pyridin-4-yl)-1,5-dihydro-4H-pyrazolo[3,4-d]pyrimidin-4-one]"
8,21 nM,"Cn1c(N2CCC3(CC2)C[C@@H](C(F)(F)F)C[C@H]3N)nc2[nH]nc(-c3ccncc3)c2c1=O [Example 54, 6-((1R,3R)-1-amino-3-(trifluoromethyl)-8-azaspiro[4.5]decan-8-yl)-5-methyl-3-(pyridin-4-yl)-1,5-dihydro-4H-pyrazolo[3,4-d]pyrimidin-4-one]"
9,11 nM,"C[C@@H]1OCC2(CCN(c3nc4[nH]nc(-c5ccc(F)cc5)c4c(=O)n3C)CC2)[C@@H]1N [Example 57, 6-((3S,4S)-4-amino-3-methyl-2-oxa-8-azaspiro[4.5]decan-8-yl)-3-(4-fluorophenyl)-5-methyl-1,5-dihydro-4H-pyrazolo[3,4-d]pyrimidin-4-one]"
